Experimental data reported in US20250041281A1, “METHOD OF TREATING BILIARY TRACT CANCER” (J-PHARMA CO., LTD., priority 2023, published 2025).
Where “and” joins values, the source holds several entries; their conditions need not be identical. Identical values can stand only once. Entries after “also recorded” stand apart in the source; their conditions may differ.

Columns and labels:
[1] = tested on: advanced biliary tract cancer refractory or intolerant to standard chemotherapy; test: Phase II randomized placebo-controlled trial, efficacy (PFS by BICR, OS, DCR); format: in vivo, human; parameters: disease control rate (DCR: CR+PR+SD) / Share of disease control patients with high LAT1 expression / Share of disease control patients with low LAT1 expression: concentration or dose not given beside the values
Experimental: (§1) As Phase II trial of Nanvuranlat, a multicenter, randomized, placebo-controlled, double-blind, parallel-group Phase II trial was conducted at 14 centers in Japan for patients with advanced biliary tract cancer who were refractory or intolerant of standard treatment. Patients were randomized in a 2:1 ratio to receive the drug or placebo using biliary tract cancer (BTC) subtype and resection status as allocation factors. The non-rapid (Slow and/or Intermediate) genotype was set as the NAT2 genotype for selection criteria, and based on the results of the PI study conducted earlier, 25 mg/m2 of Nanvuranlat or placebo was administered intravenously for 5 consecutive days and rested for 9 days (14 days: 1 cycle). Administration of the trial drug was continued until the discontinuation criteria were met. The primary endpoint was progression-free survival using RECIST 1.1 based on Blinded Independent Central Review. Images were obtained every 6 weeks from the start date and at discontinuation. PFS was defined as the date of the first documented progressive disease (PD) or death for any reason after randomization. The primary evaluation was conducted in the full analysis set (FAS) population, which consisted of all biliary tract cancer patients randomized to one of the arms. The safety evaluation was conducted in the SAFETY population, which was randomly assigned to one of the arms and received the trial drug. Nanvuranlat was used as monohydrochloride monohydrate.
Kaplan-Meier estimates corresponding to the event time points are calculated and plotted for each treatment group. Confidence intervals for the Kaplan-Meier estimates are constructed using the log-log method with standard errors approximated by the greenwood formula. Point estimates at the 25%, 50%, and 75% of survival time and 95% confidence intervals are obtained and presented in tabular form. The Brookmeyer and Crowley method is used to construct the confidence intervals for survival time percentiles.
Fitting to a stratified Cox proportional hazards model, the hazard ratio exp((β_drug)Λ) and its 95% confidence interval are estimated and presented in tabular and forest plot form, along with the p-value of the Wald test corresponding to the null hypothesis “β_drug=0; exp(β_drug)=1”.
Stratification factor 1: “Facility,” “Gall bladder cancer and other cancers,” and “Existence or nonexistence of primary tumor resection history” Stratification factor 2: “Biliary tract cancer subtype (intrahepatic biliary tract cancer, extrahepatic biliary tract cancer, […], or duodenal papillary carcinoma)” and “Existence or nonexistence of primary tumor resection history”
This test was a multicenter, randomized, double-blind, placebo-controlled, Phase II trial conducted at 14 major cancer centers/hospitals in Japan. Patients were randomly assigned to the Nanvuranlat or placebo group (2:1), stratified by BTC subtype and whether the primary cancer lesion had been resected, generated by an independent statistical group. Randomization to the two treatment groups was performed by IWRS (Interactive Web-based Response System) and generated by an independent statistical group.
Nanvuranlat 25 mg/m^2/day or placebo was administered intravenously for 5 consecutive days, followed by a 9-day rest period (=14 days: 1 cycle). The trial drug was administered by 90-minute infusion at the investigator's site (all patients were admitted during the first treatment cycle). Patients, drug administrators, and clinical trial coordinators were blinded to trial treatment. Nanvuranlat was used as monohydrochloride monohydrate.
Treatment with additional cycles was to continue until disease progression, the occurrence of other unacceptable toxicities, pregnancy confirmation, death, withdrawal of consent, loss to follow-up, unblinding of the trial, or termination of the trial, as determined by the investigator. […]

[2] = Phase II randomized placebo-controlled trial, safety (adverse events); format: in vivo
Experimental: as §1, with “The non-rapid (Slow and/or Intermediate) genotype was set as the NAT2 genotype for selection criteria, and based on the results of the PI study conducted earlier, 25 mg/m2 of Nanvuranlat or placebo was administered intravenously for 5 consecutive days and rested for 9 days (14 days: 1 cycle).” left out
The trial drug was administered by 90-minute infusion at the investigator's site (all patients were admitted during the first treatment cycle). Patients, drug administrators, and clinical trial coordinators were blinded to trial treatment. Nanvuranlat was used as monohydrochloride monohydrate.
Secondary endpoint was overall survival (OS), disease control rate (DCR) as assessed by BICR, and safety. […] Blood and urinary concentrations of Nanvuranlat and its metabolite N-acetyl-JPH203 (NAc-JPH203) were evaluated.
The primary efficacy analysis was performed using a full analysis set (FAS) population that included all randomly assigned BTC patients within their designated treatment group. The safety analysis population included all patients who received at least one trial treatment (safety population).
Statistics were used to summarize safety data, response rates, pharmacokinetic and pharmacodynamic data. Unless otherwise specified, all reported p-values are one-sided. Statistical analysis was performed using SAS software (version 9.4).

[3] = cited from earlier work

Compound: Nc1cc(COc2c(Cl)cc(C[C@H](N)C(=O)O)cc2Cl)c2oc(-c3ccccc3)nc2c1 [Nanvuranlat, O-(5-amino-2-phenylbenzoxazol-7-yl)methyl-3,5-dichloro-L-tyrosine]
- PFS hazard ratio (HR) by BICR vs placebo ([1]; FAS all patients n=104, 25 mg/m2 iv 5 days, 9 days rest): 0.557
- Median PFS ([1]; FAS, Nanvuranlat group n=69): 46.0 days
- progression-free survival rate at 1.5 months ([1]; FAS, Nanvuranlat group n=69): 53.6% and 62.3%
- progression-free survival rate at 3 months ([1]; FAS, Nanvuranlat group n=69): 14.5% and 23.2%
- Overall survival HR vs placebo, LAT1 high-expressing subgroup with IHC ([1]; IHC, LAT1 high): 0.35
- Number of patients with controlled diseases, LAT1 score 0 ([1]; LAT1 score 0): 1
- Number of patients with controlled diseases, LAT1 score 1 ([1]; LAT1 score 1): 2
- Number of patients with controlled diseases, LAT1 score 2 ([1]; LAT1 score 2): 0
- Number of patients with controlled diseases, LAT1 score 3 ([1]; LAT1 score 3): 0
- Number of patients with controlled diseases, LAT1 score 4 ([1]; LAT1 score 4): 2
- PFS HR by BICR vs placebo, LAT1 high expression subgroup ([1]; LAT1 score 4-9, n=65): 0.439
- Number of patients with controlled diseases, LAT1 score 6 ([1]; LAT1 score 6): 4
- Number of patients with controlled diseases, LAT1 score 9 ([1]; LAT1 score 9): 5
- Number of disease control patients with high LAT1 ([1]; Nanvuranlat group, LAT1 high): 11
- Number of patients with controlled diseases ([1]; Nanvuranlat group, total): 17
- disease control rate (DCR: CR+PR+SD) ([1]; by BICR, Nanvuranlat group): 24.6%
- PFS HR vs placebo, subgroup EHC ([1]; extrahepatic biliary tract cancer, 95% CI in brackets): 0.150 (0.0437-0.5153)
- Overall survival HR vs placebo ([1]; full population of FAS): 0.849
- PFS HR vs placebo, subgroup GBC ([1]; gall bladder cancer, 95% CI in brackets): 0.287 (0.1009-0.8183)
- PFS HR vs placebo, subgroup IHC ([1]; intrahepatic biliary tract cancer, 95% CI in brackets): 0.872 (0.4359-1.7458)
- Share of disease control patients with high LAT1 expression ([1]; of 17 disease control patients): 64.7%
- Share of disease control patients with low LAT1 expression ([1]; of 17 disease control patients): 17.6%
- Overall survival HR vs placebo, high LAT1 ([1]; only patients with high LAT1): 0.670
- PFS HR vs placebo, EHC and GBC integrated ([1]; patients with GBC/EHC): 0.218
- Grade 3 or higher treatment-related adverse events ([2]; fatigue, decreased platelet count, hypertension): three
- Abdominal discomfort, All grades ([2]; n = 70): 2 (2.9%) n (%)
- At least one adverse event, All grades ([2]; n = 70): 60 (85.7%) n (%)
- At least one adverse event, ≥ Grade 3 ([2]; n = 70): 21 (30.0%) n (%)
- Blood creatinine elevation, All grades ([2]; n = 70): 1 (1.4%) n (%)
- Cancer pain, All grades ([2]; n = 70): 6 (8.6%) n (%)
- Cancer pain, ≥ Grade 3 ([2]; n = 70): 1 (1.4%) n (%)
- Cholangitis, All grades ([2]; n = 70): 10 (14.3%) n (%)
- Cholangitis, ≥ Grade 3 ([2]; n = 70): 9 (12.9%) n (%)
- Constipation, All grades ([2]; n = 70): 10 (14.3%) n (%)
- Diarrhea, All grades ([2]; n = 70): 8 (11.4%) n (%)
- Diarrhea, ≥ Grade 3 ([2]; n = 70): 1 (1.4%) n (%)
- Fatigue, All grades ([2]; n = 70): 1 (1.4%) n (%)
- Fever, All grades ([2]; n = 70): 9 (12.9%) n (%)
- High blood pressure, All grades ([2]; n = 70): 5 (7.1%) n (%)
- High blood pressure, ≥ Grade 3 ([2]; n = 70): 2 (2.9%) n (%)
- Hypophagia, All grades ([2]; n = 70): 16 (22.9%) n (%)
- Insomnia, All grades ([2]; n = 70): 8 (11.4%) n (%)
- Malaise, All grades ([2]; n = 70): 11 (15.7%) n (%)
- Malaise, ≥ Grade 3 ([2]; n = 70): 1 (1.4%) n (%)
- Nasopharyngitis, All grades ([2]; n = 70): 1 (1.4%) n (%)
- Nausea, All grades ([2]; n = 70): 9 (12.9%) n (%)
- Pruritus, All grades ([2]; n = 70): 5 (7.1%) n (%)
- Rash, All grades ([2]; n = 70): 2 (2.9%) n (%)
- Stomatitis, All grades ([2]; n = 70): 4 (5.7%) n (%)
- Tumor pain, All grades ([2]; n = 70): 1 (1.4%) n (%)
- Vomiting, All grades ([2]; n = 70): 5 (7.1%) n (%)
- adverse events of Grade 3 or higher ([2]; safety population n=70): 30.0%
- frequency of all adverse events ([2]; safety population n=70): 85.7%
- serious adverse events ([2]; safety population n=70): 21.4%
- treatment-related adverse events ([2]; safety population n=70): 41.4%
- discontinuations or dose reductions ([2]; trial observation period): no discontinuations or dose reductions; also recorded: Neither discontinuations nor dose reductions were considered as treatment related
- treatment-related deaths ([2]; trial observation period): no deaths suspected to be related to Nanvuranlat; also recorded: No treatment-related deaths; also recorded: no deaths or discontinuations linked to treatment
- maximum tolerated dose ([3]; 17 patients with solid tumors): 60 mg/m^2
- Grade 3 hepatic dysfunction, number of patients ([3]; only in patients with the Rapid form of NAT2): two
